Source: patent publication US20180153995A1, “USE OF ANTIMICROBIAL POLYMERS FOR RE-SENSITIZATION OF MICROORGANISMS UPON EMERGENCE OF RESISTANCE TO ANTI-MICROBIAL AGENTS” (Technion Research & Development Foundation Limited, priority 2008, published 2018)
Read-outs that look alike come from different tables or passages of the source.

Experiments:
E. coli AG100 = experiment: Antibiotic MIC with or without sub-MIC polymer (Tables 20, 21); assay type: cell-based, Escherichia coli
E. coli AG100/ks = experiment: as above; assay type: cell-based, Escherichia coli
E. coli D21 = experiment: as above; assay type: cell-based, Escherichia coli
E. coli G11a1 = experiment: as above; assay type: cell-based, Escherichia coli
Experimental: MICs were determined by microdilution susceptibility testing in 96-well plates (by Nunc) using inocula of 10^5 bacteria per ml. Cell populations were evaluated by optical density measurements at 620 nm and were calibrated against a set of standards. Hundred (100) μl of a bacterial suspension were added to 100 μl of culture medium (control) or to 100 μl of culture medium containing various polymer concentrations in 2-fold serial dilutions. Inhibition of proliferation was determined by optical density measurements at 620 nm after an incubation period of 24 hours at 37° C.

MRSA 15903 = experiment: microbe, parasite or virus in culture; assay type: cell-based, Staphylococcus aureus; details: for MIC, ¼ + MIC OAK: with C12K(KNC10K)3NH2 (SEQ ID NO: 10) at ¼ of its MIC; for MIC, ½ + MIC OAK: with C12K(KNC10K)3NH2 (SEQ ID NO: 10) at ½ of its MIC; for MIC, ⅓ + MIC OAK: with C12K(KNC10K)3NH2 (SEQ ID NO: 10) at ⅓ of its MIC; for MIC: Staphylococcus aureus, MRSA, 24 h, read-out: MIC, Alone
Experimental: The fractionary inhibitory (FIC) concentration index for combinations of two antimicrobial agents was calculated as follows: FIC index=FICA+FICB=A/MICA+B/MICB where A and B are the MIC values of agent A and agent B in the combination, MICA and MICB are the MICs of agent A and agent B alone, and FICA and FICB are the FICs of agent A and agent B.
The FIC indexes were interpreted as follows: less than 0.5 indicates a clear re-sensitizing effect; from 0.5 to 4 indicates a marginal or null re-sensitizing effect; and over 4 indicates antagonism.
Experimental data for FIG. 4 were obtained as follows.

[1] = MRSA 15903, antibiotic alone (Table 22)

CC1(C)S[C@@H]2[C@H](NC(=O)[C@H](N)c3ccccc3)C(=O)N2[C@H]1C(=O)O [ampicillin]
Antibiotic MIC, None (E. coli AG100; antibiotic alone (Table 20)): 4 µg/mL | Antibiotic MIC, None (E. coli AG100; antibiotic alone (Table 21)): 4 µg/mL | Antibiotic MIC, None (E. coli AG100/ks; antibiotic alone (Table 20)): >512 µg/mL | Antibiotic MIC, None (E. coli AG100/ks; antibiotic alone (Table 21)): >512 µg/mL | Antibiotic MIC in presence of C12K(NC8K)5NH2 (SEQ ID NO: 3), +¼ MIC (E. coli AG100/ks; polymer at ¼ of its MIC): >512 µg/mL | Antibiotic MIC in presence of C12K(NC8K)7NH2 (SEQ ID NO: 4), +¼ MIC (E. coli AG100/ks; polymer at ¼ of its MIC): >512 µg/mL | Antibiotic MIC in presence of C12K(NC8K)5NH2 (SEQ ID NO: 3), +½ MIC (E. coli AG100/ks; polymer at ½ of its MIC): >512 µg/mL | Antibiotic MIC in presence of C12K(NC8K)7NH2 (SEQ ID NO: 4), +½ MIC (E. coli AG100/ks; polymer at ½ of its MIC): >512 µg/mL | Antibiotic MIC in presence of C12K(NC8K)5NH2 (SEQ ID NO: 3), +⅓ MIC (E. coli AG100/ks; polymer at ⅓ of its MIC): >512 µg/mL | Antibiotic MIC in presence of C12K(NC8K)7NH2 (SEQ ID NO: 4), +⅓ MIC (E. coli AG100/ks; polymer at ⅓ of its MIC): >512 µg/mL | Antibiotic MIC, None (E. coli D21; antibiotic alone (Table 20)): 64 µg/mL | Antibiotic MIC, None (E. coli D21; antibiotic alone (Table 21)): 64 µg/mL | Antibiotic MIC in presence of C12K(NC8K)5NH2 (SEQ ID NO: 3), +¼ MIC (E. coli D21; polymer at ¼ of its MIC): 64 µg/mL | Antibiotic MIC in presence of C12K(NC8K)7NH2 (SEQ ID NO: 4), +¼ MIC (E. coli D21; polymer at ¼ of its MIC): 64 µg/mL | Antibiotic MIC in presence of C12K(NC8K)5NH2 (SEQ ID NO: 3), +½ MIC (E. coli D21; polymer at ½ of its MIC): 32 µg/mL | Antibiotic MIC in presence of C12K(NC8K)7NH2 (SEQ ID NO: 4), +½ MIC (E. coli D21; polymer at ½ of its MIC): 32 µg/mL | Antibiotic MIC in presence of C12K(NC8K)5NH2 (SEQ ID NO: 3), +⅓ MIC (E. coli D21; polymer at ⅓ of its MIC): 64 µg/mL | Antibiotic MIC in presence of C12K(NC8K)7NH2 (SEQ ID NO: 4), +⅓ MIC (E. coli D21; polymer at ⅓ of its MIC): 64 µg/mL | Antibiotic MIC, None (E. coli G11a1; antibiotic alone (Table 20)): 64 µg/mL | Antibiotic MIC, None (E. coli G11a1; antibiotic alone (Table 21)): 64 µg/mL | Antibiotic MIC in presence of C12K(NC8K)5NH2 (SEQ ID NO: 3), +¼ MIC (E. coli G11a1; polymer at ¼ of its MIC): 64 µg/mL | Antibiotic MIC in presence of C12K(NC8K)7NH2 (SEQ ID NO: 4), +¼ MIC (E. coli G11a1; polymer at ¼ of its MIC): 64 µg/mL | Antibiotic MIC in presence of C12K(NC8K)5NH2 (SEQ ID NO: 3), +½ MIC (E. coli G11a1; polymer at ½ of its MIC): 32 µg/mL | Antibiotic MIC in presence of C12K(NC8K)7NH2 (SEQ ID NO: 4), +½ MIC (E. coli G11a1; polymer at ½ of its MIC): 32 µg/mL | Antibiotic MIC in presence of C12K(NC8K)5NH2 (SEQ ID NO: 3), +⅓ MIC (E. coli G11a1; polymer at ⅓ of its MIC): 64 µg/mL | Antibiotic MIC in presence of C12K(NC8K)7NH2 (SEQ ID NO: 4), +⅓ MIC (E. coli G11a1; polymer at ⅓ of its MIC): 64 µg/mL

Cc1nnc(SCC2=C(C(=O)O)N3C(=O)[C@@H](NC(=O)Cn4cnnn4)[C@H]3SC2)s1 [cefazolin]
MIC, ¼ + MIC OAK (MRSA 15903; MRSA 15903): 16 µg/mL | MIC, ½ + MIC OAK (MRSA 15903; MRSA 15903): 2 to 4 µg/mL | MIC, ⅓ + MIC OAK (MRSA 15903; MRSA 15903): 8 to 16 µg/mL | MIC (MRSA 15903; [1]): 16 µg/mL

CCN1CCN(C(=O)N[C@@H](C(=O)N[C@@H]2C(=O)N3C(C(=O)O)=C(CSc4nnnn4C)CS[C@H]23)c2ccc(O)cc2)C(=O)C1=O [cefoperazone]
MIC, ¼ + MIC OAK (MRSA 15903; MRSA 15903): 16 µg/mL | MIC, ½ + MIC OAK (MRSA 15903; MRSA 15903): 4 µg/mL | MIC, ⅓ + MIC OAK (MRSA 15903; MRSA 15903): 8 to 16 µg/mL | MIC (MRSA 15903; [1]): 16 µg/mL

CO/N=C(\C(=O)N[C@@H]1C(=O)N2C(C(=O)O)=C(COC(C)=O)CS[C@H]12)c1csc(N)n1 [cefotaxime]
MIC, ¼ + MIC OAK (MRSA 15903; MRSA 15903): 32 µg/mL | MIC, ½ + MIC OAK (MRSA 15903; MRSA 15903): 4 µg/mL | MIC, ⅓ + MIC OAK (MRSA 15903; MRSA 15903): 16 µg/mL | MIC (MRSA 15903; [1]): 32 µg/mL

CN[C@H](CC(C)C)C(=O)N[C@H]1C(=O)N[C@@H](CC(N)=O)C(=O)N[C@H]2C(=O)N[C@H]3C(=O)N[C@H](C(=O)N[C@H](C(=O)O)c4cc(O)cc(O)c4-c4cc3ccc4O)[C@H](O)c3ccc(c(Cl)c3)Oc3cc2cc(c3O[C@@H]2O[C@H](CO)[C@@H](O)[C@H](O)[C@H]2O[C@H]2C[C@](C)(N)[C@H](O)[C@H](C)O2)Oc2ccc(cc2Cl)[C@H]1O [vancomycin]
MIC, ¼ + MIC OAK (MRSA 15903; MRSA 15903): 1 µg/mL | MIC, ½ + MIC OAK (MRSA 15903; MRSA 15903): 1 µg/mL | MIC, ⅓ + MIC OAK (MRSA 15903; MRSA 15903): 1 µg/mL | MIC (MRSA 15903): 1 µg/mL
